Test results as given in ChEMBL document CHEMBL6127099, “Stimuli-responsive prodrugs with self-immolative linker for improved cancer therapy” (Eur J Med Chem, 2024).

Target: NAD(P)H dehydrogenase [quinone] 1 (Homo sapiens, UniProt P15559)
Assay: Prodrug activation assessed as NQO1 (unknown origin)-mediated RSSH release by measuring rate constant

Sequence of NAD(P)H dehydrogenase [quinone] 1 (P15559 whole entry): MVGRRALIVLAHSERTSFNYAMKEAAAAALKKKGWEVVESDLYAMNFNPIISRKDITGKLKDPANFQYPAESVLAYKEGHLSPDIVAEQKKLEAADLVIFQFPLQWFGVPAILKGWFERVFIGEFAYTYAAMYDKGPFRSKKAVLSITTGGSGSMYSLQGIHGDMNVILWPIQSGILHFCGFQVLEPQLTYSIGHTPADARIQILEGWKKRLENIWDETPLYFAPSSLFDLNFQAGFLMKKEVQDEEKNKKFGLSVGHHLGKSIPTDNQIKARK

K [min⁻¹]	SMILES
0.212	CN1CCN(C)C1=O
0.32	Cc1c(C)c2c(c(C)c1O)C(C)(C)CC(=O)O2
0.162	COC(=O)[C@H](NC(C)=O)C(C)(C)SSCc1ccc(N(C)C(=O)CC(C)(C)C2=C(C)C(=O)C(C)=C(C)C2=O)cc1
0.17	COC(=O)[C@H](NC(C)=O)C(C)(C)SSC(=O)N(C)CCN(C)C(=O)CC(C)(C)C1=C(C)C(=O)C(C)=C(C)C1=O
